According to patent US7635711B2, “Glucocorticoid mimetics, methods of making them, pharmaceutical compositions, and uses thereof” (Boehringer-Ingelheim Pharmaceuticals, Inc., priority 2004, dated 2009):

What was measured:
glucocorticoid receptor = test: one or more of the above assays (GR binding and GR cell assays for agonist/antagonist activity); type: cell-based; details: in one or more of the above assays
Source text: Compounds found to bind to the glucocorticoid receptor may be evaluated for dissociation of transactivation and transrepression by assays cited in the Background of the Invention (C. M. Bamberger and H. M. Schulte, Eur. J. Clin. Invest., 2000, 30 (suppl. 3) 6-9) or by the assays described below.
B. Glucocorticoid Receptor Cell Assays
1. Induction of Aromatase in Fibroblasts (Cell Assay for Transactivation)
Dexamethasone, a synthetic ligand to the glucocorticoid receptor (GR), induces expression of aromatase in human foreskin fibroblast cells. The activity of aromatase is measured by the conversion of testosterone to estradiol in culture media.
Human foreskin fibroblast cells (ATCC Cat. No. CRL-2429, designation CCD112SK) are plated on 96 well plates at 50,000 cells per well 5 days before use, in Iscove's Modified Dulbecco's Media (GibcoBRL Life Technologies Cat No. 12440-053) supplemented with 10% charcoal filtered FBS (Clonetech Cat No. SH30068) and Gentamycin (GibcoBRL Life Technologies Cat. No. 15710-064). On the day of the experiment, the media in the wells is replaced with fresh media. Cells are treated with test compounds to final concentrations of 10^−5 M to 10^−8 M, and testosterone to a final concentration of 300 ng/mL. Each well has a total volume of 100 μL. Samples are made in duplicates. Control wells include: (a) wells that receive testosterone only, and (b) wells that receive testosterone plus 2 μM of dexamethasone to provide maximum induction of aromatase. Plates are incubated at 37° C. overnight (15 to 18 hours), and supernatants are harvested at the end of incubation. Estradiol in the supernatant is measured using ELISA kits for estradiol (made by ALPCO, obtained from American Laboratory Products Cat. No. 020-DR-2693) according to the manufacture's instruction. The amount of estradiol is inversely proportional to the ELISA signals in each well. The extent of aromatase induction by test compounds is expressed as a relative percentage to dexamethasone. EC50 values of test compounds are derived by non-linear curve fitting.
2. Inhibition of IL-6 Production in Fibroblasts (Cell Assay for Transrepression)
Human foreskin fibroblast cells produce IL-6 in response to stimulation by pro-inflammatory cytokine IL-1.
Human foreskin fibroblast cells (ATCC Cat. No. CRL-2429) are plated on 96 well plates at 5,000 cells per well the day before use, in Iscove's Modified Dulbecco's Media (GibcoBRL Life Technologies Cat. No. 12440-053) supplemented with 10% charcoal filtered FBS (Clonetech Cat. No. SH30068) and Gentamycin (GibcoBRL Life Technologies Cat. No. 15710-064). On the next day, media in the wells is replaced with fresh media. Cells are treated with IL-1 (rhIL-1α, R&D Systems Cat. No. 200-LA) to a final concentration of 1 ng/mL, and with test compounds to final concentrations of 10^−5 M to 10^−8 M, in a total volume of 200 μL per well. Samples are done in duplicates. […] Positive control wells receive IL-1 only and represent maximum (or 100%) amount of IL-6 production. Plates are incubated at 37° C. overnight (15 to 18 hours), and supernatants are harvested at the end of incubation. IL-6 levels in the supernatants are determined by the ELISA kits for IL-6 (MedSystems Diagnostics GmbH, Vienna, Austria, Cat. No. BMS213TEN) according to manufacture's instructions. The extent of inhibition of IL-6 by test compounds is expressed in percentage relative to positive controls. IC50 values of test compounds are derived by non-linear curve fitting.
Evaluation of agonist or antagonist activity of compounds binding to the glucocorticoid receptor may be determined by any of the assays.
3. Modulation of Tyrosine Aminotransferase (TAT) Induction in Rat Hepatoma Cells
Testing of compounds for agonist or antagonist activity in induction of tyrosine aminotransferase (TAT) in rat hepatoma cells. […]

| melting point | SMILES | activity as an agonist of the glucocorticoid receptor function (glucocorticoid receptor) |
| --- | --- | --- |
| 121 to 123 °C | O=S(=O)(NC(Cc1c[nH]c2ccccc12)C(F)(F)F)c1ccccc1 (stereo not shown) | – |
| – | Cc1cc(C)c(S(=O)(=O)NC(Cc2c[nH]c3ccccc23)C(F)(F)F)c(C)c1 (stereo not shown) [2,4,6-Trimethyl-N-[2,2,2-trifluoro-1-(1H-indol-3-ylmethyl)ethyl]benzenesulfonamide] | activity as an agonist |
| – | Cc1cc(C)c(S(=O)(=O)NC(Cn2cc(C)c3ccccc32)C(F)(F)F)c(C)c1 (stereo not shown) [2,4,6-Trimethyl-N-[2,2,2-trifluoro-1-(3-methylindol-1-ylmethyl)ethyl]benzenesulfonamide] | activity as an agonist |
| – | Cc1cc(C)c(S(=O)(=O)NC(Cc2c[nH]c3cccc(F)c23)C(F)(F)F)c(C)c1 (stereo not shown) [2,4,6-Trimethyl-N-[2,2,2-trifluoro-1-(4-fluoro-1H-indol-3-ylmethyl)ethyl]benzenesulfonamide] | activity as an agonist |
| – | Cc1cc(C)c(S(=O)(=O)NC(Cc2c[nH]c3ccc(F)cc23)C(F)(F)F)c(C)c1 (stereo not shown) [2,4,6-Trimethyl-N-[2,2,2-trifluoro-1-(5-fluoro-1H-indol-3-ylmethyl)ethyl]benzenesulfonamide] | activity as an agonist |
| – | Cc1cc(C)c(S(=O)(=O)NC(Cc2c[nH]c3ccc(C)cc23)C(F)(F)F)c(C)c1 (stereo not shown) [2,4,6-Trimethyl-N-[2,2,2-trifluoro-1-(5-methyl-1H-indol-3-ylmethyl)ethyl]benzenesulfonamide] | activity as an agonist |
| – | Cc1cc(C)c(S(=O)(=O)NC(Cc2c[nH]c3cc(F)ccc23)C(F)(F)F)c(C)c1 (stereo not shown) [2,4,6-Trimethyl-N-[2,2,2-trifluoro-1-(6-fluoro-1H-indol-3-ylmethyl)ethyl]benzenesulfonamide] | activity as an agonist |
| – | Cc1cc(C)c(S(=O)(=O)NC(Cc2c[nH]c3c(F)cccc23)C(F)(F)F)c(C)c1 (stereo not shown) [2,4,6-Trimethyl-N-[2,2,2-trifluoro-1-(7-fluoro-1H-indol-3-ylmethyl)ethyl]benzenesulfonamide] | activity as an agonist |
| – | Nc1cc(Cl)cc(Cl)c1S(=O)(=O)NC(Cc1c[nH]c2ccccc12)C(F)(F)F (stereo not shown) [2-Amino-4,6-dichloro-N-[2,2,2-trifluoro-1-(1H-indol-3-ylmethyl)ethyl]benzenesulfonamide] | activity as an agonist |
| – | Cc1ccc2[nH]cc(CC(NS(=O)(=O)c3c(N)cc(Cl)cc3Cl)C(F)(F)F)c2c1 (stereo not shown) [2-Amino-4,6-dichloro-N-[2,2,2-trifluoro-1-(5-methyl-1H-indol-3-ylmethyl)ethyl]benzenesulfonamide] | activity as an agonist |
| – | Cc1cc(C)c(S(=O)(=O)NC(Cc2c[nH]c3ccccc23)C(F)(F)F)c(N)c1 (stereo not shown) [2-Amino-4,6-dimethyl-N-[2,2,2-trifluoro-1-(1H-indol-3-ylmethyl)ethyl]benzenesulfonamide] | activity as an agonist |
| – | Cc1cc(C)c(S(=O)(=O)NC(Cc2c[nH]c3c(C#N)cccc23)C(F)(F)F)c(C)c1 (stereo not shown) [N-[1-(7-Cyano-1H-indol-3-ylmethyl)-2,2,2-trifluoroethyl]-2,4,6-trimethylbenzenesulfonamide] | activity as an agonist |
| – | Cc1cc(C)c(S(=O)(=O)NC(Cc2c[nH]c3c(C#N)cc(C)cc23)C(F)(F)F)c(C)c1 (stereo not shown) [N-[1-(7-Cyano-5-methyl-1H-indol-3-ylmethyl)-2,2,2-trifluoroethyl]-2,4,6-trimethylbenzenesulfonamide] | activity as an agonist |
